The supplement of paper PMC8671470

Legend:
Assay in all cases: cell viability (% survival relative to DMSO control, bortezomib = 0%); higher = less cytotoxic
Conditions in all cases: 72 h
MV4-11 = test system: MV4-11
Method in brief: (§1)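 After 72 h at 37 °C with 5% CO2, cell viability in 384-well plates was measured by CellTiter-Glo luminescence. The plates held compounds pre-printed at 1, 10, 100, 1000 or 10000 nM in duplicate, and cells from 10 AML and 5 CML lines seeded at densities titrated to linear growth. Percent survival is the duplicate mean, normalised to vehicle as 100% and a 10 µM positive control as 0%.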

KG-1 = test system: KG-1
Method in brief: as §1

KU-812 = test system: KU-812
Method in brief: as §1

BV-173 = test system: BV-173
Method in brief: as §1

| SMILES | cell viability (MV4-11; 1 nM) [%] | cell viability (MV4-11; 10 nM) [%] | cell viability (MV4-11; 100 nM) [%] | cell viability (MV4-11; 1000 nM) [%] | cell viability (MV4-11; 10000 nM) [%] | cell viability (KG-1; 1 nM) [%] | cell viability (KG-1; 10 nM) [%] | cell viability (KG-1; 100 nM) [%] | cell viability (KG-1; 1000 nM) [%] | cell viability (KG-1; 10000 nM) [%] | cell viability (KU-812; 1 nM) [%] | cell viability (KU-812; 10 nM) [%] | cell viability (KU-812; 100 nM) [%] | cell viability (KU-812; 1000 nM) [%] | cell viability (KU-812; 10000 nM) [%] | cell viability (BV-173; 1 nM) [%] | cell viability (BV-173; 10 nM) [%] | cell viability (BV-173; 100 nM) [%] | cell viability (BV-173; 1000 nM) [%] | cell viability (BV-173; 10000 nM) [%] |
| --- | --- | --- | --- | --- | --- | --- | --- | --- | --- | --- | --- | --- | --- | --- | --- | --- | --- | --- | --- | --- |
| Clc1ccc2c(c1Cl)CNCC2 | 99.7 | 114 | 96.3 | 114 | 91.6 | 94.3 | 98.7 | 98.7 | 101 | 71.9 | 99.9 | 92.5 | 94.4 | 118 | 87.8 | 95 | 95.9 | 103 | 107 | 83.6 |
| O=C(O)C(S)=Cc1c[nH]c2ccc(F)cc12 | 96.2 | 97.6 | 81.7 | 103 | 83.6 | 101 | 95.1 | 106 | 101 | 66.3 | 102 | 103 | 101 | 112 | 102 | 97.4 | 98.1 | 85.1 | 97.7 | 88 |
| CC(C)Cc1sc(N)nc1-c1ccc(P(=O)(O)O)o1 | 102 | 101 | 113 | 101 | 87.3 | 110 | 90.8 | 102 | 98.8 | 108 | 96.3 | 94.9 | 98.7 | 90.6 | 88.2 | 85.3 | 111 | 102 | 95.2 | 86.7 |
| Cl.OC[C@H]1NC[C@@H](O)[C@@H](O)[C@@H]1O [1-Deoxymannojirimycin hydrochloride] | 102 | 92.2 | 99.3 | 105 | 80.8 | 105 | 92.3 | 90.6 | 112 | 94.1 | 101 | 89.2 | 95.7 | 98 | 98.1 | 111 | 83.1 | 96.9 | 103 | 102 |
| CN(C)c1nc(O)c2[nH]cnc2n1 [2-Dimethylamino-6-hydroxypurine] | 101 | 98.8 | 97.2 | 102 | 89.8 | 106 | 94.3 | 92.7 | 96.7 | 85.8 | 93.8 | 96.7 | 91 | 94.2 | 103 | 104 | 93 | 93.5 | 121 | 93.9 |
| O=C(O)c1cc2sccc2[nH]1 [4H-thieno[3,2-b]pyrrole-5-carboxylic acid] | 107 | 93 | 93.2 | 92.9 | 96.8 | 105 | 106 | 92.7 | 91.8 | 95.2 | 95.9 | 98.3 | 98.9 | 101 | 108 | 104 | 102 | 102 | 99.1 | 100 |
| [N-]=[N+]=CC(=O)CC[C@H](N)C(=O)O [6-Diazo-5-oxo-L-norleucine] | 78.2 | 106 | 108 | 97.1 | 105 | 110 | 95.2 | 101 | 117 | 98.9 | 95 | 102 | 110 | 97.3 | 104 | 94.8 | 89.6 | 107 | 93.4 | 96.5 |
| Sc1ncnc2nc[nH]c12 [6-mercaptopurine] | 87 | 85.5 | 80.1 | 27.3 | 24.7 | 112 | 103 | 93.4 | 97.9 | 89.4 | 98.9 | 100 | 93 | 59.3 | 54.4 | 103 | 93.8 | 86.8 | 38.8 | 12.3 |
| O=C(O)CC[C@H](NC(=O)c1ccc([N+](=O)[O-])cc1)C(=O)O [(S)-2-(4-Nitrobenzamido)pentanedioic acid] | 89.6 | 103 | 80 | 96.6 | 85.9 | 95.5 | 93.2 | 97.4 | 98.6 | 99.9 | 91.6 | 100 | 98.7 | 96.9 | 89.8 | 96.2 | 108 | 92.8 | 104 | 80.7 |
| O=C1Nc2ccccc2/C1=C\NCCc1ccc(O)c(O)c1 [AC1NZZMF] | 113 | 89.4 | 93.8 | 84.9 | 75.7 | 112 | 106 | 104 | 95.7 | 78.7 | 114 | 113 | 108 | 110 | 68.7 | 99.7 | 103 | 104 | 94.1 | 60.9 |
| Cc1ccc(S(=O)(=O)NC2c3ccccc3Oc3ccccc32)cc1 [AH-7614] | 94 | 94.1 | 100 | 94.7 | 93.3 | 100 | 95.9 | 102 | 95.4 | 104 | 93.7 | 101 | 99.1 | 97.7 | 106 | 87.1 | 91.2 | 102 | 98.4 | 104 |
| C[C@]12CC[C@H](O)CC1=CC[C@@H]1[C@@H]2CC[C@]2(C)C(c3cccnc3)=CC[C@@H]12 [Abiraterone] | 96.4 | 96.5 | 107 | 114 | 99 | 115 | 101 | 94.3 | 101 | 91.8 | 88.8 | 94.8 | 101 | 108 | 101 | 91.8 | 96.8 | 93.5 | 116 | 108 |
| O=C(COc1ccc(C(=O)c2ccccc2)cc1)NC1CCN(Cc2ccccc2)CC1 [AdipoRon] | 86.7 | 92 | 94.2 | 91.9 | 48.6 | 93.9 | 107 | 104 | 91.9 | 59.6 | 94.6 | 114 | 90.9 | 98.3 | 41.5 | 84 | 105 | 96.7 | 87 | 52.9 |
| CCOC(=O)[C@H]1O[C@@H]1C(=O)N[C@@H](CC(C)C)C(=O)NCCC(C)C [Aloxistatin] | 99.1 | 104 | 110 | 97.8 | 87.8 | 99.8 | 104 | 103 | 92.9 | 86.5 | 94 | 104 | 103 | 105 | 96.5 | 96.7 | 118 | 105 | 96.7 | 91.5 |
| N[C@](CCCCB(O)O)(CCN1CCCCC1)C(=O)O [Arginase inhibitor 1] | 101 | 92.3 | 103 | 92.4 | 84.9 | 97.2 | 84.2 | 96.6 | 100 | 92 | 102 | 84.6 | 85.6 | 108 | 89.4 | 141 | 77 | 90.8 | 88.5 | 96.1 |
| Cc1noc2c1-c1ccccc1C(c1ccc(Cl)cc1)=N[C@H]2CC(N)=O [CPI-0610] | 86.1 | 84 | 57.2 | 3.4 | 1.28 | 100 | 93.9 | 62.6 | 21.5 | 12.7 | 97.2 | 99.8 | 73.1 | 36 | 4.66 | 92.3 | 87.8 | 83.4 | 33.5 | 10.9 |
| Nc1ccn([C@@H]2O[C@H](CO)[C@@H](O)[C@@H]2O)c(=O)n1 [Cytarabine] | 103 | 89.2 | 84.2 | 34.4 | 0.163 | 108 | 108 | 63.5 | 21.8 | 11.3 | 97 | 81.8 | 24.6 | 7.19 | 5.66 | 102 | 16.4 | 0.292 | -1.03 | 0.0249 |
| CCOc1ccc(Cc2cc([C@@H]3O[C@H](CO)[C@@H](O)[C@H](O)[C@H]3O)ccc2Cl)cc1 [Dapagliflozin] | 93.7 | 106 | 94.3 | 94.6 | 86.9 | 95.5 | 102 | 83.6 | 101 | 91.8 | 85.7 | 96.5 | 90.5 | 106 | 81.3 | 74.5 | 106 | 87 | 98.2 | 82 |
| CCN(CC)CCN(Cc1ccc(-c2ccc(C(F)(F)F)cc2)cc1)C(=O)Cn1c(SCc2ccc(F)cc2)nc(=O)c2c1CCC2 [Darapladib] | 88.5 | 104 | 87.8 | 102 | -0.522 | 104 | 108 | 93.6 | 87.8 | 0.0114 | 110 | 93.6 | 100 | 80.7 | -0.56 | 100 | 88.7 | 94.3 | 79.1 | -0.184 |
| O=C(O)C(Cl)Cl [Dichloroacetate] | 99.6 | 91.5 | 83.5 | 98.5 | 102 | 108 | 94.6 | 91.5 | 93 | 103 | 97.1 | 90.9 | 99 | 108 | 100 | 96.9 | 91 | 103 | 95.7 | 93.9 |
| O=C1Oc2ccccc2C(=O)C1CC1C(=O)Oc2ccccc2C1=O (stereo not given) [Dicumarol] | 89.7 | 111 | 87 | 97.5 | 93.6 | 106 | 105 | 88.6 | 101 | 95.9 | 110 | 95.6 | 84.2 | 97.8 | 107 | 89.5 | 107 | 91.8 | 94.1 | 109 |
| CC12CCC(O)CC1CCC1C2CCC2(C)C(C3=CC(=O)OC3)CCC12O (stereo not given) [Digitoxigenin] | 96.8 | 120 | 100 | 1.01 | -1.41 | 128 | 113 | 87.5 | 6.15 | -1.05 | 105 | 97.4 | 101 | 7.21 | 3.46 | 106 | 95.9 | 86.2 | 2.96 | -1.17 |
| C[C@H]1O[C@@H](O[C@H]2[C@@H](O)C[C@H](O[C@H]3[C@@H](O)C[C@H](O[C@H]4CC[C@@]5(C)[C@H](CC[C@@H]6[C@@H]5C[C@@H](O)[C@]5(C)[C@@H](C7=CC(=O)OC7)CC[C@]65O)C4)O[C@@H]3C)O[C@@H]2C)C[C@H](O)[C@@H]1O [Digoxin] | 110 | 114 | 4.71 | 0.26 | 0.435 | 92 | 108 | 27.9 | 0.685 | -0.0339 | 92.2 | 113 | 30.5 | 4.45 | 4.24 | 92.3 | 106 | 3.24 | -0.0612 | -0.063 |
| O=c1c2ccccc2[se]n1-c1ccccc1 [Ebselen] | 93 | 92.5 | 93.8 | 99.7 | 68 | 98.2 | 89.7 | 105 | 80.3 | 75.4 | 94.5 | 104 | 89.5 | 99.4 | 87.8 | 90.5 | 101 | 84.4 | 106 | 83.8 |
| Clc1ccc(COC(Cn2ccnc2)c2ccc(Cl)cc2Cl)cc1 (stereo not given) [Econazole] | 103 | 83.4 | 89.3 | 57.4 | 25.2 | 97.4 | 95.3 | 101 | 86 | 52.2 | 113 | 101 | 87.2 | 89.5 | 41.9 | 114 | 92.6 | 84.2 | 70.1 | 43.1 |
| C#Cc1cnc(O)nc1O [Eniluracil] | 102 | 112 | 104 | 108 | 106 | 103 | 117 | 107 | 100 | 114 | 94.9 | 109 | 95.2 | 94.3 | 89.7 | 94.6 | 115 | 106 | 109 | 85.9 |
